Reference: patent US10285982B2, “3-(1H-pyrrolo[2,3-B]pyridin-2-yl)-1H-pyrazolo[3,4-C]pyridines and therapeutic uses thereof” (Samumed, LLC, priority 2015, dated 2019)

Columns and labels:
Type in all cases: cell-based
SW480 colon cancer cells = assay: Cell viability assay (CellTiter-Blue); settings: Homo sapiens, 96 h, four days; for inhibition at 10 µM: given where EC50 >10 μM, read-out: percent inhibition at 10 μM
Summary of the method: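 4-day exposure, 37 °C/5% CO2; ~2×10^3 SW480 cells/well; 8-pt 1:3 curve, 10–0.0045 μM, duplicates vs DMSO controls. Resazurin→resorufin fluorescence readout, ~3 h. EC50 by nonlinear fit; if >10 μM, % inhibition at 10 μM reported.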

[1] = system: Wnt activity (Sp5-Luc reporter, SW480 colon carcinoma cells); assay: Wnt activity screening assay, Sp5-Luc reporter gene in SW480 cells; settings: Homo sapiens; for EC50: overnight incubation; for inhibition at 10 µM: given where EC50 >10 μM, read-out: percent inhibition at 10 μM
Summary of the method: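 SW480 cells stably transduced with an Sp5 promoter (eight TCF/LEF sites)–firefly luciferase lentiviral reporter, plated at 4,000 cells/well in 1% FBS medium with compounds (10-point 1:3 series from 10 μM, 0.1% DMSO) overnight at 37 °C. BrightGlo luminescence normalised to DMSO; EC50 by four-parameter fit, else % inhibition at 10 μM.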

[2] = system: primary human fibroblasts derived from IPF patients (LL29 cells) treated with TGF-β1; assay: Inhibition of fibrotic process, αSMA staining in TGF-β1 treated LL29 fibroblasts; settings: Fibroblast, 96 h, % αSMA positive LL29 cells, TGF-β1 20 ng/mL, 4 days
Summary of the method: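 Read-out: fraction of αSMA-positive cells by high-content imaging, SYTOX-stained dead cells excluded, normalized to TGF-β1/DMSO wells. Cells got compound (10 μM–[…], 11 points) plus TGF-β1 20 ng/mL for 4 days. EC50 from triplicate curves; above 10 μM, % inhibition at 10 μM given.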

SMILES	EC50 (SW480 colon cancer cells) [nM]	EC50 [1] [nM]	EC50 [2] [nM]	inhibition at 10 µM (SW480 colon cancer cells) [%]	inhibition at 10 µM [1] [%]
O=C(Cc1ccccc1)Nc1cncc(-c2cc3c(-c4cc5c(-c6ccccc6F)ccnc5[nH]4)n[nH]c3cn2)c1 [Compound 66, N-(5-(3-(4-(2-Fluorophenyl)-1H-pyrrolo[2,3-b]pyridin-2-yl)-1H-pyrazolo [3,4-c]pyridin-5-yl)pyridin-3-yl)-2-phenylacetamide]	620	139	501	–	–
c1cncc(-c2cc3c(-c4cc5cccnc5[nH]4)n[nH]c3cn2)c1 [Compound 256, 5-(Pyridin-3-yl)-3-(1H-pyrrolo[2,3-b]pyridin-2-yl)-1H-pyrazolo[3,4-c]pyridine]	> 10000	> 10000	1700	19.3	57.7
O=C(Nc1cncc(-c2cc3c(-c4cc5c(-c6ccncc6)ccnc5[nH]4)n[nH]c3cn2)c1)C1CCC1 [Compound 133, N-(5-(3-(4-(Pyridin-4-yl)-1H-pyrrolo[2,3-b]pyridin-2-yl)-1H-pyrazolo[3,4-c]pyridin-5-yl)pyridin-3-yl)cyclobutanecarboxamide]	> 10000	> 10000	2600	3.7	1.8
